melting point | SMILES
196 to 198 °C | CCCc1nc2c(N)nc3ccccc3c2n1CC(C)(C)CC(C)=NOC [Example 40, 5-(4-Amino-2-propyl-1H-imidazo[4,5-c]quinolin-1-yl)-4,4-dimethylpentan-2-one O-methyloxime]
148 to 150 °C | CON=C(C)CC(C)(C)Cn1cnc2c(N)nc3ccccc3c21 [Example 41, 5-(4-Amino-1H-imidazo[4,5-c]quinolin-1-yl)-4,4-dimethylpentan-2-one O-methyloxime]
153 to 155 °C | CCCCc1nc2c(N)nc3ccccc3c2n1CCC/C=N/OC [Example 42, (1E,Z)-4-(4-amino-2-butyl-1H-imidazo[4,5-c]quinolin-1-yl)butanal O-methyloxime]
191 to 193 °C | CCCc1nc2c(N)nc3ccccc3c2n1CCCCN(O)C(C)=O [Example 43, N-[4-(4-Amino-2-propyl-1H-imidazo[4,5-c]quinolin-1-yl)butyl]-N-hydroxyacetamide]
158 to 160 °C | CCCc1nc2c(N)nc3ccccc3c2n1CCCCN(O)C(=O)NC(C)C [Example 44, N-[4-(4-Amino-2-propyl-1H-imidazo[4,5-c]quinolin-1-yl)butyl]-N-hydroxy-N′-isopropylurea]
153 to 155 °C | CO/N=C/CCCn1c(C)nc2c(N)nc3ccccc3c21 [Example 45, 4-(4-Amino-2-methyl-1H-imidazo[4,5-c]quinolin-1-yl)butanal O-methyloxime]
158 to 160 °C | CON(CCCCn1c(C)nc2c(N)nc3ccccc3c21)C(N)=O [Example 46, N-[4-(4-Amino-2-methyl-1H-imidazo[4,5-c]quinolin-1-yl)butyl]-N-methoxyurea]
201 to 203 °C | CON(CCCCn1c(C)nc2c(N)nc3ccccc3c21)S(C)(=O)=O [Example 47, N-[4-(4-Amino-2-methyl-1H-imidazo[4,5-c]quinolin-1-yl)butyl]-N-methoxymethanesulfonamide]
175 to 178 °C | CCOCc1nc2c(N)nc3ccccc3c2n1C/C(CC)=N/OC [Example 48, 1-[4-Amino-2-(ethoxymethyl)-1H-imidazo[4,5-c]quinolin-1-yl]butan-2-one O-methyloxime]
178 to 180 °C | CCCc1nc2c(N)nc3c(c2n1CCCCN(O)C(=O)NC(C)C)CCCC3 [Example 50, N-[4-(4-Amino-2-propyl-6,7,8,9-tetrahydro-1H-imidazo[4,5-c]quinolin-1-yl)butyl]-N-hydroxy-N′-isopropylurea]
210 to 213 °C | CCc1nc2c(N)nc3ccccc3c2n1CCCNOC [Example 51, N-[3-(4-Amino-2-ethyl-1H-imidazo[4,5-c]quinolin-1-yl)propyl]-O-methylhydroxylamine]
